Values quoted from earlier work, collected in patent US8608968B2, “Compositions for bioremediation and methods for using” (Carus Corporation, priority 2006, dated 2013).

Conditions: dimensionless

| Compound | Henry's Law Constant |
| --- | --- |
| Cl/C=C\Cl [cis-1,2-dichloroethene] | 0.31 |
| C=C [Ethene] | 8.76 |
| C [Methane] | 27.2 |
| ClC=C(Cl)Cl [Trichloroethene] | 0.48 |
| C=CCl [Vinyl chloride] | 0.95 |
